Results taken from publication PMC7870846, “Incorporation of sensing modalities into de novo designed fluorescence-activating proteins” (Nature Communications, 2021).
Marks after values point to notes of the source that are not given here.

Tests used:
[1] = cited from earlier work
SERCA pumps = assay: Pharmacological inhibition of SERCA Ca2+ pumps in cardiomyocytes; assay type: cell-based, human; conditions: 20.0 µM final; 3.00 µM DFHBI
Protocol: Pharmacological inhibition of SERCA Ca^2+ pumps: Cardiomyocytes in 2.0 mL of Tyrode’s solution labeled with 3.00 µM DFHBI were imaged at 2 Hz for 30 min with an sCMOS camera (Photometrics Prime95B) and 20x magnification lens (Leica HCX PL FLUOTAR L 20x/0.40 NA CORR). A stock solution of 20.0 mM cyclopiazonic acid (CPA) (Tocris, 1235) in 100% anhydrous DMSO was prepared. Two milliliters of Tyrode’s solution containing 3.00 µM DFHBI and 40.0 µM CPA was administered at ~10 min from initial image acquisition to inhibit SERCA pumps and disrupt Ca^2+ recovery into the SR after contraction. Fluorescence fold-change over the whole field of view in each frame was calculated by Eq. (11), where F is the fluorescence per frame, and F0 is the fluorescence at the first frame (Supplementary Fig. 19c).

[2] = pH-dependent fluorescence assays (pH titration); assay type: biochemical; conditions: from pH 8.38 to pH 4.79
Protocol: In measuring pH-dependent fluorescence (Fig. 3d–i), Na2HPO4-citrate buffer supplemented with 150 mM NaCl at unique pH values were produced via mixing various volumes of 100 mM citric acid (Sigma Aldrich), 200 mM Na2HPO4 (Sigma Aldrich), and 2.00 M NaCl, and final pHs quantified via an Accumet AB15 Basic pH meter (Fisher Scientific). pHRed and pHluorin2 were produced via large-scale protein purification, 6xHis-tag removal and size-exclusion chromatography (SEC) purification, and mFAP_pH and mFAP2b were produced via large-scale protein purification and SEC purification. pH-dependent fluorescence was measured at […] final protein concentration for mFAP2b, mFAP_pH and pHRed, and 170 nM final concentration for pHluorin2, at each pH in technical triplicate in 200 μL final volumes per well. […] In measuring fluorescence excitation spectra at each pH (Fig. 3d), excitation wavelengths were set to the range λex = 300–530 nm and fluorescence emission measured at λem = 562 nm. In measuring pH-dependent fluorescence excitation spectra at pH 3.76 and pH 7.34 (Fig. 3f, g), excitation spectra were measured using excitation wavelengths in the range λex = 300–540 nm and emission wavelength λem = 592 nm. […]

mFAP2b = target: T1, mFAP2b; assay: Fluorescence titration of DFHBI or DFHBI-1T into 20.0 nM purified protein in high-salt Tev cleavage buffer (25.0 mM Tris, 100 mM NaCl, pH 8.00), excitation 468 nm and emission 530 nm, means of eight technical replicates fit to a single-binding site isotherm.; conditions: n = 8
T1 construct: de novo designed beta-barrel; large-scale purification and SEC
Excerpt: (§1) Fig. 1 Characterization of brighter and chromophore-specific mFAPs. a Computational model of de novo designed β-barrel variant mFAP2b showing protein backbone (cartoon) and bound DFHBI chromophore (sticks). b, c Chemical structures of DFHBI and DFHBI-1T, respectively. d, e In vitro titration of d DFHBI or e DFHBI-1T with mFAP2 (gray), mFAP2b (lime), mFAP2a (violet), and mFAP10 (pink) proteins. Error bars represent s.d. of the mean of eight technical replicates. […] The images (left) are the pseudocolored normalized fluorescence intensity per pixel. Scale bars represent 10 microns. Imaging was independently repeated twice with similar results. The computational models (right) show the residues unique to mFAP2b (V13, M15) (lime sticks) or mFAP2a (A13, F15) (violet sticks). Intermolecular hydrogen bonds to the chromophore are shown as black dotted lines. […] Source data is available for Fig. 1f–i.
(§2) Fluorescence endpoints were measured on a Synergy Neo2 hybrid multi-mode reader (BioTek) in flat bottom, black polystyrene, non-binding surface 96-well microplates (Corning 3650). In measuring chromophore-binding affinities (Fig. 1d, e), mFAP2, mFAP2a, and mFAP2b, and mFAP10 were produced by large-scale protein purification and SEC purification. Proteins were aliquoted in eight technical replicates in 200 μL final volumes to 20.0 nM final concentration in ten serial dilutions ( 10 dilution factor) of DFHBI starting from 31.6 μM DFHBI or 31.6 μM DFHBI-1T final concentrations, including an eleventh condition without chromophore. Fluorescence was excited at λex = 468 nm and fluorescence emission measured at λem = 530 nm. Background fluorescence endpoints of wells with identical chromophore concentrations but purified protein replaced with an identical volume of high-salt Tev cleavage buffer were measured, and fluorescence endpoints subtracted from those measured with protein. Background-subtracted data were averaged and the means normalized from 0 to 1 and fit to a single-binding site isotherm function using non-linear least squares fitting to obtain a fitted Kd value (Table 1), and the fit scaled to the maximum mean value (Fig. 1d, e).

mFAP2a = target: T2, mFAP2a; assay: as above; conditions: n = 8
T2 construct: de novo designed beta-barrel; large-scale purification and SEC
Excerpt: as §1, §2

mFAP10 = target: T3, mFAP10; assay: as above; conditions: n = 8
T3 construct: de novo designed beta-barrel; large-scale purification and SEC
Excerpt: as §1, §2

mFAP_pH [3] = target: T4, mFAP_pH; assay: Fluorescence titration of DFHBI into 500 nM protein in Na2HPO4-citrate buffer with 143 mM NaCl at pH 7.34 (excitation 483 nm, emission 503 nm), fit to a single-binding site isotherm.; conditions: read-out: affinities (Kd values), phenolate form of DFHBI
T4 construct: de novo designed beta-barrel; large-scale protein purification
Protocol: (§3) In measuring the protonated (phenolic) and deprotonated (phenolate) DFHBI affinities with mFAP_pH (Supplementary Fig. 5c), fluorescence endpoints were measured on a Synergy Neo2 hybrid multi-mode reader (BioTek) in flat bottom, black polystyrene, non-binding surface 96-well microplates (Corning 3650). mFAP_pH was produced by large-scale protein purification[49] and aliquoted to 200 μL final volumes at 500 nM final concentration in seven serial dilutions ( 10 dilution factor) of DFHBI starting from 10.0 μM DFHBI final concentration, including an eighth condition without chromophore, in Na2HPO4-citrate buffer supplemented with 143 mM NaCl final concentration at either pH 3.61 or pH 7.34. For pH 3.61 fluorescence was excited at λex = 379 nm and fluorescence emission measured at λem = 498 nm, and for pH 7.34 fluorescence was excited at λex = 483 nm and fluorescence emission measured at λem = 503 nm. At each pH, background fluorescence endpoints of wells with identical chromophore concentrations but purified protein replaced with an identical volume of buffer were measured, and fluorescence endpoints subtracted from those measured with protein. Background-subtracted data were normalized from 0 to 1 and fit to a single-binding site isotherm function using non-linear least squares fitting to obtain the reported Kd values, which were less than the protein concentrations tested.

mFAP_pH [4] = target: T4, mFAP_pH; assay: Fluorescence titration of DFHBI into 500 nM protein in Na2HPO4-citrate buffer with 143 mM NaCl at pH 3.61 (excitation 379 nm, emission 498 nm), fit to a single-binding site isotherm.; conditions: read-out: affinities (Kd values), phenolic form of DFHBI
Protocol: as §3

| Molecule | Reported quantum yield [1] | Kd (mFAP2b) | Kd (mFAP2a) | Kd (mFAP10) | further results |
| --- | --- | --- | --- | --- | --- |
| CC1=N/C(=C\c2cc(F)c(O)c(F)c2)C(=O)N1C [DFHBI, 3,5-difluoro-4-hydroxybenzylidene imidazolinone] | 0.0007^e | – | – | – | Absolute quantum yield [1]: 0.001^f; pKa ([1]; free, unbound in solution): ~ 5.4 |
| CC(=O)C1=C(O)[C@@H]2[C@H]3c4c[nH]c5cccc(c45)C[C@H]3C(C)(C)N2C1=O [cyclopiazonic acid] | – | – | – | – | effect on SR fluorescence of EF1n_mFAP2b sensor (SERCA pumps): sustained increase in fluorescence in the SR |
| pHRed: previously reported pH sensor protein [reference compound] | – | – | – | – | fold-change in ratiometric fluorescence (Fratio) [2]: ~ 34 fold |
| CC1=N/C(=C\c2cc(F)c(O)c(F)c2)C(=O)N1CC(F)(F)F [DFHBI-1T, (Z)-4-(3,5-difluoro-4-hydroxybenzylidene)-2-methyl-1-(2,2,2-trifluoroethyl)-1H-imidazol-5(4H)-one] | – | 11000 ± 3100 nM | 5800 ± 860 nM | 45 ± 6.5 nM | – |
| CC1=N/C(=C\c2cc(F)c(O)c(F)c2)C(=O)N1CC(F)(F)F [DFHBI-1T, (Z)-4-(3,5-difluoro-4-hydroxybenzylidene)-2-methyl-1-(2,2,2-trifluoroethyl)-1H-imidazol-5(4 H)-one] | 0.00098^e | – | – | – | – |
| CC1=N/C(=C\c2cc(F)c(O)c(F)c2)C(=O)N1C [DFHBI] | – | 1800 ± 250 nM | 150 ± 11 nM | 17 ± 7.9 nM | Kd (mFAP_pH [3]): ~160 nM; Kd (mFAP_pH [4]): ~190 nM |
